Source: patent US20050170502A1, “Methods for maintaining hepatocytes in culture and for differentiating embryonic stem cells along a hepatocyte lineage” (REGENTS OF THE UNIVERSITY OF CALIFORNIA, priority 2003, published 2005)

Tested on: mouse ES cells (ES-D3)
Assay: Hepatocyte-specific gene expression in differentiated mouse ES cells, real-time quantitative RT-PCR
Settings: for albumin gene expression (effect of individual growth and differentiation factors): mouse ES cells, IMDM, collagen type I, day 33, FIG. 2A
Protocol: Mouse ES cell line ES-D3 and mouse STO fibroblasts were obtained from the American Type Culture Collection, Manassas, Va. ES cells were expanded on STO fibroblast feeder layers in Dulbecco's modified Eagle's medium (DMEM) (unless specified, cell culture supplies were from Invitrogen, Carlsbad, Calif.) containing 15% fetal bovine serum (FBS), 1 mM L-glutamine, 60 μM non-essential amino acid solution, 0.1 mM 2-mercaptoethanol, 10 mM HEPES (Sigma-Aldrich, Saint Louis, Mo.), 1400 U/ml leukemia inhibitory factor (LIF) (Chemicon International, Temecula, Calif.), and penicillin/streptomycin at standard concentrations. To prepare feeder layers, STO fibroblasts were cultured until confluent and treated with 10 μg/ml mitomycin C (Sigma-Aldrich) for 4 hours. Mitomycin C-treated STO fibroblasts were then re-seeded at a density of 7-8×10^4/cm^2 one day before plating ES cells. […] These culture conditions stimulated the formation of non-attached embryoid bodies (EBs): Five days later, EBs were placed on different substratum pre-coated 6-well tissue culture plates in various media formulations, and the expression of hepatocyte-specific genes was examined at day 8-75 (FIG. 1A). Substrata used for pre-coating included gelatin, collagen type I (Sigma-Aldrich), collagen type IV, laminin, fibronectin and poly-D-lysine (Becton Dickinson Labware, Bedford, Mass.). The following culture media were tested for ES cells differentiation: DMEM, Williams' medium E (WME), and Iscove's modified Dulbecco's medium (IMDM), all supplemented with 10 to 20% FBS, 0.3 mM monothioglycerol (Sigma-Aldrich), penicillin/streptomycin at standard concentrations, and a range of growth and differentiation factors including hepatocyte growth factor (HGF, 20 ng/ml), nerve growth factor (NGF, 100 ng/ml), epidermal growth factor (EGF, 100 ng/ml), acidic fibroblast growth factor (aFGF, 100 ng/ml), basic fibroblast growth factor (bFGF, 100 ng/ml) (Li, X. et al., J. Cell. Biol. 153:811-822 (2001)), all-trans-retinoic acid (RA, 1 μM) (Makita, T. et al., Genes. Dev. 15:889-901 (2001)), oncostatin M (OnM, 10 ng/ml) (Kamiya, A. et al., EMBO. J. 18:2127-2136 (1999)), bovine insulin (0.126 U/ml), dexamethasone (100 nM) (all from Sigma-Aldrich), and human insulin (0.126 U/ml) (Eli Lilly and Company, Indianapolis, Ind.). Growth and differentiation factors were added to the culture media at final concentrations as indicated above. In addition, EBs were also cultured in medium that was previously used to induce multipotent adult progenitor cells (MAPC) from mouse bone marrow to differentiate into functional hepatocyte-like cells (Schwartz, R. E. et al., J. Clin. Invest. 109:1291-1302 (2002)).
Total RNA was extracted with RNeasy Mini Kit (Qiagen, Valencia, Calif.). Real time quantitative RT-PCR was employed for the determination of gene expression as described in detail previously by our group (Wege, H. et al., Gastroenterology 124:432-444 (2003)). In brief, one μg RNA was used to generate cDNA after treatment with deoxyribonuclease I (Invitrogen). First-strand synthesis was performed employing the Thermoscript RT-PCR System (Invitrogen) with random hexamers. Relative mouse or human gene expression analysis (ΔΔCT) was performed by real-time quantitative PCR with the ABI Prism 7700 Sequence Detection System and SYBR PCR Green Master Mix or TaqMan PCR Master Mix (Applied Biosystems, Foster City, Calif.). Primer pairs and hybridization probes for mouse or human albumin, prealbumin (transthyretin), alphal-antitrypsin (α1-AT), glucose-6-phosphatase (G6P), cytokeratin 19 (CK19), γ-glutamyl transferase (GGT), and β-actin, were synthesized, and primer concentrations were optimized for specific amplification at 60° C. […] Expression levels were normalized using mouse β-actin or human glyceraldehyde phosphate dehydrogenase (GAPDH) as an endogenous control. Normalized expression of hepatocyte-specific genes was compared to levels detected in primary adult mouse or human hepatocytes.

Molecule	albumin gene expression (effect of individual growth and differentiation factors)	production of hepatocyte-specific proteins compared with bovine insulin (also in murine ES cells)
mEGF: mouse epidermal growth factor (NSYPGCPSSYDGYCLNGGVCMHIESLDSYTCNCVIGYSGDRCQTRDLRWWELR; not fully specified; Epidermal growth factor; UniProt P01132 977-1029, looked up)	only minor positive or even negative effects	–
CC1=C(/C=C/C(C)=C/C=C/C(C)=C/C(=O)O)C(C)(C)CCC1 [RA, all-trans-retinoic acid]	only minor positive or even negative effects	–
HGF: hepatocyte growth factor	only minor positive or even negative effects	–
human insulin: human insulin (Eli Lilly and Company), growth factor added to the culture medium	most effective	higher production
NGF: nerve growth factor	only minor positive or even negative effects	–
bFGF: basic fibroblast growth factor	only minor positive or even negative effects	–
aFGF: acidic fibroblast growth factor	only minor positive or even negative effects	–
C[C@@H]1C[C@H]2[C@@H]3CCC4=CC(=O)C=C[C@]4(C)[C@@]3(F)[C@@H](O)C[C@]2(C)[C@@]1(O)C(=O)CO [dexamethasone, 9-fluoro-11β,17,21-trihydroxy-16α-methylpregna-1,4-diene-3,20-dione]	most effective	–
hEGF: human epidermal growth factor (NSDSECPLSHDGYCLHDGVCMYIEALDKYACNCVVGYIGERCQYRDLKWWELR; UniProt P01133 971-1023, looked up)	only minor positive or even negative effects	–
